According to patent publication US20060292639A1, “Splice variant of the vanilloid receptor VR1A” (Adolor Corporation, priority 2004, published 2006):
Where two headings read alike, the source gives them in different places.

Key:
human DRG VR1 = molecular target: T1, human DRG VR1 (Homo sapiens, UniProt Q8NER1, I585V/K332R/M315I); experiment: Ca2+ influx assay, stable cell line expressing VR1; assay type: cell-based; conditions: for IC50: VR1 stable cell line, N=4, read-out: IC50 Capsazepine
T1 construct: The two primers were designed to amplify the entire coding region; expressed in transfected cells; CHO is stated only for the VR1A construct
T1 sequence (Q8NER1 whole entry M315I/K332R/I585V): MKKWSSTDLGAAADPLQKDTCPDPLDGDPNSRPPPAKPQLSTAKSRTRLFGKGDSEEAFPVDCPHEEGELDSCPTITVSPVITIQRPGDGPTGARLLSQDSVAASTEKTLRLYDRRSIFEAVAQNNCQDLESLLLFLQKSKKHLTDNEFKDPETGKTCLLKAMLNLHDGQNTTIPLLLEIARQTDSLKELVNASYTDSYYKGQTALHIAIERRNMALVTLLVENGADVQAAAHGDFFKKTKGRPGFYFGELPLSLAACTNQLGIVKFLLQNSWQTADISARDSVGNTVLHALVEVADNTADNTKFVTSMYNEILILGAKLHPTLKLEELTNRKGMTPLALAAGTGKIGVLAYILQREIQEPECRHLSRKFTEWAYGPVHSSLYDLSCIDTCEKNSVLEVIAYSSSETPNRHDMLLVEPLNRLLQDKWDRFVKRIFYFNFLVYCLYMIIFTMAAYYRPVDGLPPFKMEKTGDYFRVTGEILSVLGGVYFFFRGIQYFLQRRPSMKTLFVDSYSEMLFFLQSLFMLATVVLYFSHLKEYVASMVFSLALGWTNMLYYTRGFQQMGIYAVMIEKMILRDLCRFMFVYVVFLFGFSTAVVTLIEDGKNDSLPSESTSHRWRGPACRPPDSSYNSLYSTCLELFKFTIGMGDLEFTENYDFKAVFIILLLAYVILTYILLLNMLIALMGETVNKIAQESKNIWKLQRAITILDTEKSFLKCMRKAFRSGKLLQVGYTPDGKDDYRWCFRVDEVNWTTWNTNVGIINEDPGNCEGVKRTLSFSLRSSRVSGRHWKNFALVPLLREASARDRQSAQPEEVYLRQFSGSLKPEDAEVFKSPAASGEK
Method: (§1) B. Generation of a stable cell line: The VR1A construct was transfected into 80-90% confluent cultures of CHO cells grown in F12 media containing 10% fetal bovine serum (Hyclone Laboratories). After 48 hours, cells were transferred to selection medium (growth medium containing 1 mg/ml of G418) and 15 days later individual G418 resistant foci were isolated and expanded. In order to identify a functional cell line, the expanded cells were plated in a 96 well plate and grown to confluency. […] Functional clones were retested, expanded and cryopreserved.
(§2) C. Calcium influx assay: The stable cell lines, expressing human DRG VR1 and human pancreas VR1A, were seeded the day before the assay at 40,000 cells/well density in 96 well black clear bottom assay plates (Corning Inc., Corning, N.Y.). On the day of the assay, the medium of cell plates was changed to 0.2 ml of 1× Hanks' balanced salt solution (Invitrogen, Carlsbad, Calif.) containing 20 mM HEPES, pH 7.4, 1.3 mM freshly made probenecid and 3 μM Fluo-3AM (Molecular Devices, Sunnyvale, Calif.). The cell plates were incubated at 37° C. for one hour and left at room temperature for 30 minutes. Serial dilutions of agonist compounds, starting at 100 μM, were set up in 96 well plates and subsequently used for the analysis. Both plates were loaded to the FlexStation in order to run the assay. The excitation wavelength was 485 nM and the emission wavelength was 583 nM.

human pancreas VR1A = molecular target: T2, human pancreas VR1A (Homo sapiens, UniProt Q8NER1, I585V/M315I/M552V); experiment: Ca2+ influx assay, stable cell line expressing VR1A; assay type: cell-based
T2 construct: VR1A codes for a VR1-like protein, 837 amino acids long, with 148 unique residues at the N-terminal end; expressed in transfected cells; host or cells: CHO
T2 sequence (Q8NER1 1-837 isoform Q8NER1-3 M313I/M550V/I583V): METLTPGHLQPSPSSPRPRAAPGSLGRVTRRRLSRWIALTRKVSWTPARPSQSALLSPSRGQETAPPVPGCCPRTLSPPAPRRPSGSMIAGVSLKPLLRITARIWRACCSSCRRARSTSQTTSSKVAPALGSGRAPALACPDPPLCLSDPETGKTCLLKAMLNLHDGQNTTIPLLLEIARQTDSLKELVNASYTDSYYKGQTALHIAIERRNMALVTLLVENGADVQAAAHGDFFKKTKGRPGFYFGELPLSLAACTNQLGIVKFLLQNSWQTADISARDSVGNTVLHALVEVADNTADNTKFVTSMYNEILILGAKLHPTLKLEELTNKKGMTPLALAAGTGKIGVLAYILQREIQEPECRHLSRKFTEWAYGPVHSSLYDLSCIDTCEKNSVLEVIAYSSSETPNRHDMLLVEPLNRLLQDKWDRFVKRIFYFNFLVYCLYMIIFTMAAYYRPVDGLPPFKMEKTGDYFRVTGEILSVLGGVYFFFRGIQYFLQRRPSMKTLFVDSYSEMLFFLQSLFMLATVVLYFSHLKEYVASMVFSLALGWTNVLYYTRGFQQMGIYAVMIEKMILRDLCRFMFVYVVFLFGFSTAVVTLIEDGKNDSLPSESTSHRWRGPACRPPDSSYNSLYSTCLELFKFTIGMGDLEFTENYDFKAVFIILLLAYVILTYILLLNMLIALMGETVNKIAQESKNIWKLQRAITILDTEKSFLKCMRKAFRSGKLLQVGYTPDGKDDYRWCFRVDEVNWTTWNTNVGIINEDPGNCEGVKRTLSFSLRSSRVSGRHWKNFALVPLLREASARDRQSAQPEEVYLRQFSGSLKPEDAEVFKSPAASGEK
Method: as §1, §2

SMILES	IC50 (human DRG VR1; E-capsaicin as agonist)	IC50 (human DRG VR1; RTX as agonist)	IC50 (human pancreas VR1A; IC50 Capsazepine, VR1A stable cell line, RTX as agonist, N=4)	IC50 (human pancreas VR1A; read-out: IC50 Capsazepine)	fold lower IC50 value with RTX as an agonist compared to capsaicin as an agonist (human pancreas VR1A; text does not say whether VR1 or VR1A is meant)	EC50 (human DRG VR1)	EC50 (human pancreas VR1A)
Oc1cc2c(cc1O)CN(C(=S)NCCc1ccc(Cl)cc1)CCC2 [Capsazepine, capsazepine]	194 ± 0.06 nM	140 ± 0.8 nM	25 ± 0.26 nM	60 ± 0.1 nM	approximately 5 fold		
C=C(C)[C@]12C[C@@H](C)[C@@]34O[C@](Cc5ccccc5)(O[C@@H]1[C@@H]3C=C(COC(=O)Cc1ccc(O)c(OC)c1)C[C@]1(O)C(=O)C(C)=C[C@@H]41)O2 [RTX, resiniferatoxin]						1.6 ± 0.17 nM	5 ± 0.08 nM
